From BigSolDB 2.1

Cn1c(=O)c2[nH]cnc2n(C)c1=O
solubility (mole fraction) (in ethanol, 309.4 K): 0.0008
solubility (mole fraction) (in ethanol, 313 K): 0.0013
solubility (mole fraction) (in ethanol, 318.6 K): 0.002
solubility (mole fraction) (in ethanol, 321.3 K): 0.0027
solubility (mole fraction) (in ethanol, 325.2 K): 0.0036
solubility (mole fraction) (in ethanol, 332.8 K): 0.005
solubility (mole fraction) (in ethanol, 340.1 K): 0.0083
solubility (mole fraction) (in ethanol, 345.3 K): 0.0123
solubility (mole fraction) (in n-octanol, 322.3 K): 0.001
solubility (mole fraction) (in n-octanol, 327.2 K): 0.0013
solubility (mole fraction) (in n-octanol, 330.2 K): 0.0017
solubility (mole fraction) (in n-octanol, 336.7 K): 0.0025
solubility (mole fraction) (in n-octanol, 337.5 K): 0.0027
solubility (mole fraction) (in n-octanol, 343.8 K): 0.0045
solubility (mole fraction) (in n-octanol, 352.1 K): 0.0063
solubility (mole fraction) (in n-octanol, 355.3 K): 0.0069
solubility (mole fraction) (in n-octanol, 364.5 K): 0.008
solubility (mole fraction) (in water, 308.5 K): 0.0004
solubility (mole fraction) (in water, 310.6 K): 0.0005
solubility (mole fraction) (in water, 314.5 K): 0.0007
solubility (mole fraction) (in water, 316.7 K): 0.0009
solubility (mole fraction) (in water, 319.3 K): 0.001
solubility (mole fraction) (in water, 323.4 K): 0.0012
solubility (mole fraction) (in water, 326.2 K): 0.0018
solubility (mole fraction) (in water, 333.3 K): 0.0026
solubility (mole fraction) (in water, 337.6 K): 0.0039
solubility (mole fraction) (in water, 342.6 K): 0.0064
solubility (mole fraction) (in water, 343.1 K): 0.007

Cn1c(=O)c2c(ncn2CCO)n(C)c1=O
solubility (mole fraction) (in ethanol, 313.9 K): 0.001
solubility (mole fraction) (in ethanol, 321.2 K): 0.0016
solubility (mole fraction) (in ethanol, 325.7 K): 0.0023
solubility (mole fraction) (in ethanol, 327.4 K): 0.0029
solubility (mole fraction) (in ethanol, 332.5 K): 0.004
solubility (mole fraction) (in ethanol, 336.8 K): 0.0055
solubility (mole fraction) (in ethanol, 339.1 K): 0.0065
solubility (mole fraction) (in ethanol, 339.7 K): 0.0068
solubility (mole fraction) (in ethanol, 342.4 K): 0.0077
solubility (mole fraction) (in ethanol, 343.8 K): 0.0081
solubility (mole fraction) (in ethanol, 344.9 K): 0.0086
solubility (mole fraction) (in n-octanol, 323.2 K): 0.0026
solubility (mole fraction) (in n-octanol, 333.2 K): 0.0046
solubility (mole fraction) (in n-octanol, 335.2 K): 0.006
solubility (mole fraction) (in n-octanol, 338.4 K): 0.0074
solubility (mole fraction) (in n-octanol, 343.5 K): 0.0095
solubility (mole fraction) (in n-octanol, 351.8 K): 0.0149
solubility (mole fraction) (in n-octanol, 355.5 K): 0.02
solubility (mole fraction) (in n-octanol, 365.2 K): 0.0259
solubility (mole fraction) (in water, 290.7 K): 0.0027
solubility (mole fraction) (in water, 300.9 K): 0.0039
solubility (mole fraction) (in water, 301.6 K): 0.0041
solubility (mole fraction) (in water, 303.4 K): 0.0042
solubility (mole fraction) (in water, 304.6 K): 0.0048
solubility (mole fraction) (in water, 306 K): 0.0052
solubility (mole fraction) (in water, 312.5 K): 0.0067
solubility (mole fraction) (in water, 312.8 K): 0.0067
solubility (mole fraction) (in water, 316.2 K): 0.0086
solubility (mole fraction) (in water, 317.9 K): 0.0099
solubility (mole fraction) (in water, 320.5 K): 0.0119
solubility (mole fraction) (in water, 322.5 K): 0.0133
solubility (mole fraction) (in water, 324.9 K): 0.0155
solubility (mole fraction) (in water, 330.8 K): 0.0204
solubility (mole fraction) (in water, 334.7 K): 0.026
solubility (mole fraction) (in water, 342 K): 0.0447
solubility (mole fraction) (in water, 347.3 K): 0.0623
solubility (mole fraction) (in water, 348.4 K): 0.0808

Cn1cnc2c1c(=O)[nH]c(=O)n2C
solubility (mole fraction) (in ethanol, 293.15 K): 1.53e-05
solubility (mole fraction) (in ethanol, 298.15 K): 2.33e-05
solubility (mole fraction) (in ethanol, 303.15 K): 3.15e-05
solubility (mole fraction) (in ethanol, 308.15 K): 3.85e-05
solubility (mole fraction) (in ethanol, 313.15 K): 5.49e-05
solubility (mole fraction) (in ethanol, 318.15 K): 6.34e-05
solubility (mole fraction) (in n-octanol, 293.15 K): 0.000214
solubility (mole fraction) (in n-octanol, 298.15 K): 0.000433
solubility (mole fraction) (in n-octanol, 308.15 K): 0.00061
solubility (mole fraction) (in n-octanol, 318.15 K): 0.000824
solubility (mole fraction) (in water, 293.15 K): 0.001
solubility (mole fraction) (in water, 298.15 K): 0.00101
solubility (mole fraction) (in water, 303.15 K): 0.00101
solubility (mole fraction) (in water, 308.15 K): 0.00103
solubility (mole fraction) (in water, 313.15 K): 0.00104
solubility (mole fraction) (in water, 318.15 K): 0.00104
